Results reported in patent US20140243195A1, “N-Thio-anthranilamide compounds and their use as pesticides” (BASF SE, priority 2011, published 2014).

Assays:
Type in all cases: in vivo
[1] = system: Cowpea Aphid (Aphis craccivora); experiment: Cowpea aphid (Aphis craccivora) spray test on potted cowpea plants; conditions: assessed after 72 hours, in comparison with untreated controls
Protocol: The active compound was dissolved at the desired concentration in a mixture of 1:1 (vol:vol) distilled water:acetone. Surfactant (Alkamuls® EL 620) is added at a rate of 0.1% (vol/vol). The test solution was prepared at the day of use.
Potted cowpea plants were colonized with approximately 50-100 aphids of various stages by manually transferring a leaf tissue cut from infested plant 24 hours before application. Plants were sprayed after the pest population has been recorded. Treated plants were maintained on light carts at about 28° C. Percent mortality was assessed after 72 hours.

[2] = system: Diamond Back Moth (Plutella xylostella); experiment: Diamond back moth (Plutella xylostella) cabbage leaf dip test; conditions: foliar, 3rd instar larvae, 72 hours after treatment, in comparison with untreated controls
Protocol: The active compound was dissolved at the desired concentration in a mixture of 1:1 (vol:vol) distilled water:acetone. Surfactant (Alkamuls® EL 620) is added at a rate of 0.1% (vol/vol).The test solution was prepared at the day of use.
Leaves of cabbage were dipped in test solution and air-dried. Treated leaves were placed in petri dishes lined with moist filter paper and inoculated with ten 3rd instar larvae. Mortality was recorded 72 hours after treatment. Feeding damages were also recorded using a scale of 0-100%.

[3] = system: Mediterranean Fruitfly (Ceratitis capitata); experiment: Mediterranean fruitfly (Ceratitis capitata) microtiter plate insect diet test; conditions: 120 h, egg and larval mortality after 5 days, in comparison with untreated controls
Protocol: For evaluating control of Mediterranean fruitfly (Ceratitis capitata) the test unit consisted of microtiter plates containing an insect diet and 50-80 C. capitata eggs.
(§1) The compounds were formulated using a solution containing 75% v/v water and 25% v/v DMSO. Different concentrations of formulated compounds were sprayed onto the insect diet at 5 μl, using a custom built micro atomizer, at two replications.
After application, microtiter plates were incubated at about 28±1° C. and about 80±5% relative humidity for 5 days. Egg and larval mortality was then visually assessed.

[4] = system: Orchid Thrips (Dichromothrips corbetti); experiment: Orchid thrips (Dichromothrips corbetti) floral-immersion test; conditions: adult thrips, 72 hours after treatment, in comparison with untreated controls
Protocol: Dichromothrips corbetti adults used for bioassay were obtained from a colony maintained continuously under laboratory conditions. For testing purposes, the test compound was diluted in a 1:1 mixture of acetone:water (vol:vol), plus 0.01% vol/vol Alkamuls® EL 620 surfactant.
Thrips potency of each compound was evaluated by using a floral-immersion technique. Plastic petri dishes were used as test arenas. All petals of individual, intact orchid flowers were dipped into treatment solution and allowed to dry. Treated flowers were placed into individual petri dishes along with—about 20 adult thrips. The petri dishes were then covered with lids. All test arenas were held under continuous light and a temperature of about 28° C. for duration of the assay. After 3 days, the numbers of live thrips were counted on each flower, and along inner walls of each petri dish. The percent mortality was recorded 72 hours after treatment.

[5] = system: Southern Armyworm (Spodoptera eridania); experiment: Southern armyworm (Spodoptera eridania) spray test on lima bean plants; conditions: 96 h, larvae, 4 days after treatment, in comparison with untreated controls
Protocol: (§2) The active compounds were formulated in cyclohexanone as a 10,000 ppm solution supplied in tubes. The tubes were inserted into an automated electrostatic sprayer equipped with an atomizing nozzle and they served as stock solutions for which lower dilutions were made in 50% acetone:50% water (v/v). A nonionic surfactant (Kinetic®) was included in the solution at a volume of 0.01% (v/v).
(§3) Lima bean plants (variety Sieva) were grown 2 plants to a pot and selected for treatment at the 1st true leaf stage. Test solutions were sprayed onto the foliage by an automated electrostatic plant sprayer equipped with an atomizing spray nozzle. The plants were dried in the sprayer fume hood and then removed from the sprayer. Each pot was placed into perforated plastic bags with a zip closure. About 10 to 11 armyworm larvae were placed into the bag and the bags zipped closed. Test plants were maintained in a growth room at about 25° C. and about 20-40% relative humidity for 4 days, avoiding direct exposure to fluorescent light (24 hour photoperiod) to prevent trapping of heat inside the bags. Mortality and reduced feeding were assessed 4 days after treatment, compared to untreated control plants.

[6] = system: Vetch Aphid (Megoura viciae); experiment: Vetch aphid (Megoura viciae) broad bean leaf disk microtiter test; conditions: foliar, 120 h, adult aphids, after 5 days, in comparison with untreated controls
Protocol: For evaluating control of vetch aphid (Megoura viciae) through contact or systemic means the test unit consisted of 24-well-microtiter plates containing broad bean leaf disks.
The compounds were formulated using a solution containing 75% v/v water and 25% v/v DMSO. Different concentrations of formulated compounds were sprayed onto the leaf disks at 2.5 μl, using a custom built micro atomizer, at two replications.
After application, the leaf disks were air-dried and 5-8 adult aphids placed on the leaf disks inside the microtiter plate wells. The aphids were then allowed to suck on the treated leaf disks and incubated at about 23±1° C. and about 50±5% relative humidity for 5 days. Aphid mortality and fecundity was then visually assessed.

[7] = system: Tobacco Budworm (Heliothis virescens); experiment: Tobacco budworm (Heliothis virescens) I spray test on cotton plants; conditions: 96 h, larvae, 4 days after treatment, in comparison with untreated controls
Protocol: as §2
as §3, with “Cotton” for “Lima bean”, “plants” for “plants (variety Sieva)”, “cotyledon” for “1st true leaf”, “budworm” for “armyworm”

[8] = system: Boll Weevil (Anthonomus grandis); experiment: Boll weevil (Anthonomus grandis) microtiter plate insect diet test; conditions: 120 h, egg and larval mortality after 5 days, in comparison with untreated controls
Protocol: For evaluating control of boll weevil (Anthonomus grandis) the test unit consisted of 96-well-microtiter plates containing an insect diet and 5-10 A. grandis eggs.
as §1
After application, microtiter plates were incubated at about 25±1° C. and about 75±5% relative humidity for 5 days. Egg and larval mortality was then visually assessed.

[9] = system: Colorado Potato Beetle (Leptinotarsa decemlineata); experiment: Colorado potato beetle (Leptinotarsa decemlineata) spray test on eggplant foliage; conditions: foliar, 96 h, beetle larvae, 4 days after treatment, in comparison with untreated controls
Protocol: as §2
Eggplants were grown 2 plants to a pot and were selected for treatment at the 1st true leaf stage. Test solutions were sprayed onto the foliage by an automated electrostatic plant sprayer equipped with an atomizing spray nozzle. The plants were dried in the sprayer fume hood and then removed from the sprayer. The treated foliage was then cut and removed from the pot and placed in a Petri dish lined with moistened filter paper. Five beetle larvae were introduced into each Petri dish and the dish was covered by a Petri dish lid. Petri dishes were maintained in a growth room at about 25° C. and about 20-40% relative humidity for 4 days, avoiding direct exposure to fluorescent light (24 hour photoperiod) to prevent trapping of heat inside the dishes. Mortality and reduced feeding were assessed 4 days after treatment, compared to untreated control plants.

Cc1cc(Cl)cc(C(=O)N=S2CCCC2)c1NC(=O)c1ccc(C(F)(F)F)cc1-c1ncccc1Cl [Compound 1-7, 5-chloro-2-[[2-(3-chloro-2-pyridyl)-4-(trifluoromethyl)benzoyl]amino]-3-methyl-N-(thiolan-1-ylidene)benzamide]
≥ 75%: mortality at 300 ppm [1] | mortality at 300 ppm [2] | mortality at 2500 ppm [3] | mortality at 500 ppm [4] | mortality at 300 ppm [5] | mortality at 2500 ppm [6] | mortality at 2500 ppm [7] | mortality at 2500 ppm [8] | mortality at 10 ppm [9]
